# Data published in patent publication US5958907A, “Pharmaceutical compositions and uses of inorganic pyrophosphates” (The University of Iowa Research Foundation, priority 1997, dated 1999).
# Read-outs that look alike come from different tables or passages of the source.
# Columns and labels:
# CFTR [1] = details: cited from earlier work
# [2] = system: purinergic receptors in the airway epithelium; details: in vitro; cited from earlier work
# wild-type CFTR = target: T1, wild-type CFTR (Homo sapiens, UniProt P13569); assay: Single channel excised inside-out patch-clamp and burst analysis, wild-type CFTR; assay type: cell-based; details: for frequency of prolonged bursts compared with PPi / bursts of activity: PPi analogs at 5 mM; for bursts of activity: C127 cell patches with a single active channel
# T1 construct: excised inside-out patches with ATP and PKA
# T1 sequence (P13569 whole entry): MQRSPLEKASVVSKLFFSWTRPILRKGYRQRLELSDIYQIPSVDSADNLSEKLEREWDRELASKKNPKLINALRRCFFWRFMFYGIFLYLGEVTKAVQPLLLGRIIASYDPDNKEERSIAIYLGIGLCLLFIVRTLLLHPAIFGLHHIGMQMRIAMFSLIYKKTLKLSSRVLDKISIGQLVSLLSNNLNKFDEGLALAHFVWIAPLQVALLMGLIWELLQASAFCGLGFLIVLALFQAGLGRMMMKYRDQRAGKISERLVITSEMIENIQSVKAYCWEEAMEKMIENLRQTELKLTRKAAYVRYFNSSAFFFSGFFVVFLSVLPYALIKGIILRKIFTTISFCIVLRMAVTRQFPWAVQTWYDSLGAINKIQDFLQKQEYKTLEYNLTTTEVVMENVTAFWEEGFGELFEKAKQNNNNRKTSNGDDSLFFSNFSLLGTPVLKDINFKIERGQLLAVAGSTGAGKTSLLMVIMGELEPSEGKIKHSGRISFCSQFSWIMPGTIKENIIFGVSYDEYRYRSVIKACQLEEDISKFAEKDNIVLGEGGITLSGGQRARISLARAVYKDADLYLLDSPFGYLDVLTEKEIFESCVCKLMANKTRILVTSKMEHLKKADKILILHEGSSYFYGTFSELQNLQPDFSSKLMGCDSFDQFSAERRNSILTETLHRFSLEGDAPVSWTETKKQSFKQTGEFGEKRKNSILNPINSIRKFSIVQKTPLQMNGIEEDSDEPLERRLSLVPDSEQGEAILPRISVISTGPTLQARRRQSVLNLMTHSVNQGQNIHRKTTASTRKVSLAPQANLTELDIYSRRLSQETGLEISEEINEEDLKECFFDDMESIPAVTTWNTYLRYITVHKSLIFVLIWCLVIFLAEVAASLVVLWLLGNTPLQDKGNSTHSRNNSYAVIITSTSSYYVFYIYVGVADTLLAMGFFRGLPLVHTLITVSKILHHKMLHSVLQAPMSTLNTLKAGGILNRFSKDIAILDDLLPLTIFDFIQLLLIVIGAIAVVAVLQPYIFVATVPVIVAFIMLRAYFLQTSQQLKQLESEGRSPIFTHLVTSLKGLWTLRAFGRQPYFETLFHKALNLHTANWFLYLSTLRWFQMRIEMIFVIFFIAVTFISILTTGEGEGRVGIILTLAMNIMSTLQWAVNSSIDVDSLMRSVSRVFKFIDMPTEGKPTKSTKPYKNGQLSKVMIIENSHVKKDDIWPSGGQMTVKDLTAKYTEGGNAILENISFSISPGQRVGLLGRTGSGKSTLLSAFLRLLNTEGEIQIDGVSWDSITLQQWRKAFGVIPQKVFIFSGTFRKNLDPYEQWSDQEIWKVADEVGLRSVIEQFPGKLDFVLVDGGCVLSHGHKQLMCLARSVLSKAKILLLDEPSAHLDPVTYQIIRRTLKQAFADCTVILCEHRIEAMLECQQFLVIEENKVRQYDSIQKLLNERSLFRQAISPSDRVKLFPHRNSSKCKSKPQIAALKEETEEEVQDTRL
# [3] = cited from earlier work
# CFTR channel = CFTR channel (Homo sapiens, UniProt P13569); details: 5 mM PPi
# CFTR channel, sequence (P13569 whole entry): as above
# Experimental: Maximum likelihood analysis and kinetic modeling were performed as described (Winter, M. C. et al. (1994) Biophys. J. 66:1398-1403). Briefly, unfiltered single channel data were digitized on a microcomputer (Apple Macintosh, Apple Computer, Inc., Cupertine, Calif.) equipped with a multifunctional data acquisition board (NB-MIO-16) and LabVIEW 2 software (National Instruments, Austin, Tex.) at 5 kHz following filtering with an 8-pole Bessel filter (Frequency Devices Inc., Haverhill, Mass.) at a comer frequency of 1 kHz with subsequent digital filtering at 500 Hz. Previous work has shown that a linear three state model (C1 .rarw.→C2 .rarw.→O) best describes the kinetics of CFTR channel activity (Winter, M. C. et al. (1994) Biophys. J. 66:1398-1403). The Maple 5 symbolic algebra program (Waterloo Maple Software, Waterloo, Canada) was used to derive the open and closed time probability density functions for this model by solving the matrix equations in terms of the rate constants. The resulting equations were used in LabVIEW 2 to determine the set of rate constants which yielded the maximum likelihood for the open and closed times observed with different experimental interventions.
# It has been previously shown that the activity of single phosphorylated CFTR channels can be described by a linear three state model (Winter, M. C. et al. (1994) Biophys. J. 66:1398-1403), and this model has been used to describe how ATP, ADP, and inorganic phosphate alter the rate constants which describe transitions between states (Carson, M. R. et al., 1994 Biophys. J (In Press); Winter, M. C. et al., 1994 Biophys. J. 66:1398-1403). […] The rate constants (β1, β2, α1, and α2) describe the rate of transition between each state.
# CFTR Cl^- channel [4] = target: T2, CFTR Cl^- channel (Homo sapiens, UniProt P13569); details: external addition of 5 mM PPi, n=4
# T2 sequence (P13569 whole entry): as above
# Experimental: To determine if inorganic pyrophosphate (PPi) would alter CFTR Cl^- channel activity, 5 mM PPi was added to an excised, inside-out membrane patch containing many CFTR channels which had been phosphorylated by PKA.
# CFTR Cl^- channel [5] = target: T2, CFTR Cl^- channel
# human CFTR = details: [α-32P]8-N3ATP 30 αM, PPi in mM, 60 s UV irradiation; relative to control without PPi
# Experimental: Photolabeling of membrane-associated CFTR was performed as previously described (Travis, S. M. et al. (1993) J. Biol. Chem. 268:15336-15339). […] Membranes were prepared by differential centrifugation and resuspended in 20 mM HEPES, pH 7.5, 50 mM NaCl, 3 mM MgSO4, with 2 μg/ml each of leupeptin, aprotinin, and pepstatin. Membrane-associated CFTR was phosphorylated prior to photolabeling by incubation with 100 nM PKA and 0.1 mM ATP in buffer containing 10 m MgCl2 and 50 mM 1,4-piperazine diethane sulfonic acid, pH 6.8 for 20 min at 30° C., then diluted in 12 volumes buffer containing 20 mM tris(hydroxymethyl)aminomethane, pH 7.5, 0.2 mM EGTA and 1 μM calyculin A. Membranes were collected by centrifugation and resuspended at a concentration of 2.5 mg protein/ml in the same buffer.
# Photolabeling was performed by preincubating membranes (50 μg membrane protein/sample) on ice with [α-^32 P]8-N3ATP (30 αM, 6-12 Ci/mmol) and PPi (in mM). After 60 s UV irradiation, CFTR was solubilized and immunoprecipitated as described (Travis, S. M. et al. (1993) J. Biol. Chem. 268:15336-15339) using antibodies raised against the R domain (M13-1, 0.3 μg/sample) and against the C terminus (M1-4, 10 μg/sample). Immunocomplexes were analyzed by SDS-PAGE and incorporation of [α-^32 P]8-N3ATP was quantitated with an AMBIS radioanalytic imaging system (AMBIS Systems, Inc., San Diego, Calif.).
# CFTR-ΔF508 = details: 5 mM PPi, 75 nM PKA, 0.3 mM ATP
# [6] = target: endogenous CFTR in the apical membrane of T-84 intestinal epithelial monolayers (Homo sapiens, UniProt P13569)
# endogenous CFTR in the apical membrane of T-84 intestinal epithelial monolayers, sequence (P13569 whole entry): as above
# CFTR [7] = details: artificial lipid bilayers; cited from earlier work
# sodium channels = details: aerosolized, initial results; cited from earlier work
structure (smiles),measurement,setting,value
Nc1ncnc2c1ncn2[C@@H]1O[C@H](COP(=O)(O)OP(=O)(O)NP(=O)(O)O)[C@@H](O)[C@H]1O [AMP-PNP],binding affinity relative to ATP,CFTR [1],one twentieth
"Nc1ncnc2c1ncn2[C@@H]1O[C@H](COP(=O)(O)OP(=O)(O)OP(=O)(O)O)[C@@H](O)[C@H]1O [ATP, Adenosine 5'-triphosphate]",chloride secretion,[2],can stimulate chloride secretion
"O=P(O)(O)CP(=O)(O)O [PCP, Methylenediphosphonic acid]",frequency of prolonged bursts compared with PPi,"wild-type CFTR; 75 nM PKA, 0.3 mM ATP",less frequent
same,bursts of activity,"wild-type CFTR; 75 nM PKA, 0.3 mM ATP",prolonged bursts of activity
same,effects on Po and average burst duration (channel activity),wild-type CFTR; nonhydrolyzable PPi analogs,did not achieve statistical significance
same,maintenance of calcaemia after initial treatment,[3]; daily oral administration of 1600 mg,calcaemia can be maintained
same,efficacy in tumor-induced bone disease,[3]; one slow infusion of 600 mg,shown efficacy
"O=P([O-])([O-])OP(=O)([O-])[O-].[Na+].[Na+].[Na+].[Na+] [PPi, Sodium pyrophosphate]",duration of the long closed states between bursts of activity,"wild-type CFTR; 5 mM PPi, 0.3 mM ATP, 75 nM PKA",appeared to decrease the duration of the long closed states
same,open state probability (Po),"wild-type CFTR; 5 mM PPi, 0.3 mM ATP, 75 nM PKA, before: 0.39±0.021, n=8, p<0.001",0.81±0.03
same,mean burst duration,"wild-type CFTR; 5 mM PPi, 0.3 mM ATP, 75 nM PKA, before: 175±6 ms, n=8, p<0.001",1568 ± 219 ms
same,single channel current amplitude,"wild-type CFTR; after addition of 5 mM PPi, 0.3 mM ATP, 75 nM PKA, before: 0.90±0.05, n=8, p=0.812",0.91±0.02 pA
same,decrease of rate constant α2,"CFTR channel; 0.3 mM ATP, 75 nM PKA",37%
same,rate constant β1 (transition from long closed state C1 to bursting state),"CFTR channel; 0.3 mM ATP, 75 nM PKA",increased β1
same,rate constant β2,"CFTR channel; 0.3 mM ATP, 75 nM PKA",did not alter β2
same,rate constant α1 (rate of leaving the bursting mode),"CFTR channel; 0.3 mM ATP, 75 nM PKA, four single-channel patches",six-fold decrease
same,change in Po within a burst,"CFTR channel; n=4, not significantly different",< 5%
same,whole-cell currents,CFTR Cl^- channel [4],did not alter currents
same,Cl- current,"CFTR Cl^- channel [5]; 5 mM PPi in the presence of 0.3 mM ATP, channels phosphorylated by PKA, cytosolic side",reversible increase
same,Cl- current,CFTR Cl^- channel [5]; PPi in the absence of ATP,did not stimulate current
same,EC50,"CFTR Cl^- channel [5]; read-out: apparent EC50 of stimulation of Cl- current, in the presence of ATP, PKA-phosphorylated channels",~500 µM
same,8-N3 ATP labeling of CFTR,human CFTR,concentration-dependent increase
same,Po,"CFTR-ΔF508; before: 0.07±0.01, n=3",0.21±0.022
same,average burst duration,"CFTR-ΔF508; before: 125±19 ms, n=3",1023 ± 330 ms
same,increase of Po,CFTR-ΔF508; n=3,three-fold
same,increase of average burst duration,CFTR-ΔF508; n=3,eight-fold
same,stimulation of ΔF508 activity,CFTR-ΔF508; n=5,three-fold
same,apical membrane Cl- current,"[6]; 1 or 5 mM PPi added to basolateral solution after cAMP, 1 mM ATP",further increase in current
same,apical membrane Cl- current,[6]; 1 or 5 mM PPi in the absence of cAMP,did not increase current above baseline levels
same,time for current to decrease to baseline levels after removal of cAMP,[6]; in the continued presence of PPi,≤ 3 min
same,duration of bursts,CFTR [7],prolonged the duration of bursts
O=c1ccn([C@@H]2O[C@H](COP(=O)(O)OP(=O)(O)OP(=O)(O)O)[C@@H](O)[C@H]2O)c(=O)[nH]1 [UTP],chloride secretion,[2],can stimulate chloride secretion
N=C(N)NC(=O)c1nc(Cl)c(N)nc1N [amiloride],"rate of disease progression, as measured by lung function tests",sodium channels,slight change in the rate of disease progression
same,safety,sodium channels,safe
"CC(O)(P(=O)(O)O)P(=O)(O)O [etidronate, 1-hydroxyethylidenebisphosphonic acid, reference compound]",frequency of prolonged bursts compared with PPi,"wild-type CFTR; 75 nM PKA, 0.3 mM ATP",less frequent
same,bursts of activity,"wild-type CFTR; 75 nM PKA, 0.3 mM ATP",prolonged bursts of activity
same,efficacy in tumor-induced bone disease,[3]; 500 mg/day for 3 days,shown efficacy
